Converted amounts (≈) assume the structure as drawn. “And” between values parts separate entries of the source, which are not always exact repeats. Identical values can stand only once. “Also recorded” adds a separate entry of the source.
Columns and labels:
[1] = per day; cited from earlier work
[2] = test system: hexobarbital-induced sleeping time; conditions: 300 to 500 mg per kg; cited from earlier work
[3] = test system: spontaneous motor activity; conditions: mice; relative to maltol; cited from earlier work
[4] = test system: non-smoker volunteers; assay: Non-smoker control volunteers on same regimen; type: in vivo, human (non-smokers); conditions: five non-smokers; in excess of 500 mg per day for several days
Experimental: As a control, five non-smoker volunteers were tested according to the same regimen, receiving varying quantities of ethyl maltol in excess of 500 mg. per day for periods of several days.

[5] = test system: cigarette consumption of smokers; assay: Multi-day dose course in individual smokers (Example 4, Table 1): tobacco consumption; type: in vivo, human (volunteer smokers)
Excerpt: Smoking behavior is complex and includes cigarette, pipe and cigar smoking. Both from the standpoint of habituation and of health hazard, cigarette smoking is considered to be the most serious. It is contemplated that the treatment method described herein will be effective to inhibit all forms of smoking behavior and combinations thereof, involving the consumption of tobacco. For convenience, the ensuing discussion focuses on cigarette smoking, as exemplary of smoking behavior in general. Tobacco consumption is a function the number of cigarettes smoked and the proportion of each cigarette smoked. Reduction of consumption is measured by comparison with a smoker's pretreatment consumption rate. All data used herein are expressed as percent reduction, i.e., the differential between pretreatment and current smoking consumption rate divided by the pretreatment rate, times 100. All rates are calculated to take into account both the number of cigarettes smoked and the proportion of each smoked.
Extensive tests were made of individual smokers of varied age, smoking history, and sex in a course of treatment extending over several days. All smokers tested in this experiment were initially naive as to the purpose of the test or the expected effect. The subjects volunteered for the tests after being told that the material is safe according to FDA food additive standards and that they were to report all observed effects. So far as can be ascertained none of the subjects deduced the true purpose of the test until the effects were made obvious by substantial involuntary reduction in their smoking activities. Subjects were interviewed before the dosage course to insure that they were in general good health. Interviews were also conducted during and after the dosage course, at least every third day to ascertain what physiological or psychological effects were experienced. No side effects were noted during or after the treatment cycle.
Several individuals from the original test series volunteered for additional testing. In all such instances, a treatment free period of three weeks to three months was interposed between tests.
Subjects are identified by number. The original, naive tests are identified by the letter "a" following the subjects' number. Subsequent test series are identified sequentially by "b" and "c", where appropriate.
All subjects except nos. 10 and 11 received ethyl maltol in a chewing gum with instructions to chew for at least 10 minutes, and preferably 15 minutes. Subjects 10 and 11 received ethyl maltol in tablet form, rather than by sustained release in the mouth.

[6] = test system: convulsions produced by pentylenetetrazole or strychnine; conditions: 300 to 500 mg per kg; cited from earlier work
[7] = Solubility; type: physicochemical
Experimental: The troches were made essentially by conventional candy making techniques. The polysaccharide and starch were first dry blended to substantial uniformity. About 3-4% by weight of water was added to the dry powder to form a thick paste. This paste was then heated to produce a uniform viscous melt. Maltol or ethyl maltol were added to this melt as saturated solutions in boiling water. The water solubility of the gamma pyrones is somewhat limited. For example, one gram of ethyl maltol requires 6 ml of water at 100° C. to dissolve completely. Since the water content of the mixture must be kept low, the amount of ethyl maltol which can be incorporated is about 3-4%, and preferably about 1% by weight of the troche. […] Alternatively, the entire process can be carried out in a suitable pressure apparatus.

[8] = cited from earlier work
[9] = test system: rat brain cortex slices; conditions: in vitro; cited from earlier work
[10] = test system: smoking habit of smokers; assay: Single dose response in smokers (Example 3); type: in vivo, human (volunteer smokers)
Experimental: The effect of a single dose of ethyl maltol in the range from 100 mg to 1,200 mg was tested on thirty volunteer subjects who were smokers. As a control, an additional ten smokers were given an inert placebo, a similar candy or gum laced with ascorbic acid and citric acid to impart a medicinal flavor. […] The threshold of effectiveness varied with the individual's age, sex, weight, smoking history, and habits. […] These studies established the existence of a critical threshold dose level below which the effectiveness of ethyl maltol as a tobacco smoking inhibitor was not observed. In subsequent tests where the gamma pyrone was administered in a dose series extending over several days, daily doses of less than about 300 mg per day were similarly ineffective.

[11] = chewing gum, 600 mg/day, 1 day, subject 8b
[12] = chewing gum, 800 mg/day, course: 1a 16 days, 2b 20, 7b 20, 8a 1, 9a 5 days
[13] = chewing gum, 900 mg/day, 12 days, subject 2a
[14] = chewing gum, 1200 mg/day, 8 days, subject 4a
[15] = chewing gum, 1500 mg/day, 25 days, subject 3a
[16] = tablets, 1000 mg/day, 15 days, subject 11a
[17] = tablets, 1200 mg/day, 10 days, subject 10a

SMILES: CCc1occc(=O)c1O [ethyl maltol, 3-hydroxy-2-ethyl-4-pyrone]
- safe average daily intake [1]: 2 mg per kg
- hexobarbital-induced sleeping time [2]: potentiating hexobarbital-induced sleeping time
- spontaneous motor activity (in words) [3]: also inhibitory, but somewhat less potent
- psychological or physiological effects [4]: no psychological or physiological effects
- Cigarette Consumption per day at end (in words) ([5]; chewing gum, 600 mg/day, 1 day, subject 6a, for following 2 wks.): Reduced to 1/2 pack for following
- Change in Smoking Pattern per cig. [5, 11]: Less than 1/2
- Cigarette Consumption per day at end [5, 11]: 7 cigarettes per day
- Percentage Reduction [5, 11]: 40-50%
- Change in Smoking Pattern per cig. ([5]; chewing gum, 700 mg/day, course: 2c 30 days, 3b 8, 5a 14, 7c 40 days): Approx. 1/2; also recorded: Varied; also recorded: Less than 3/4; also recorded: Reduced to 2-3 puffs
- Change in Smoking Pattern per cig. [5, 12]: Approx. 1/2; also recorded: Less than 1/2; also recorded: Less than 3/4; also recorded: Reduced to light-up
- Percentage Reduction [5, 12]: 70-80% and 41-68% and 75% and 75-80% and 70%
- Cigarette Consumption per day at end [5, 13]: 0 cigarettes per day
- Percentage Reduction [5, 13]: 100%
- Change in Smoking Pattern per cig. ([5]; chewing gum, 1000 mg/day, course: 4b 4 days, 7a 7, 12a 8 days): Less than 1/2; also recorded: Reduced to 3-4 puffs
- Cigarette Consumption per day at end [5, 14]: 0 cigarettes per day
- Percentage Reduction [5, 14]: 100%
- Cigarette Consumption per day at end [5, 15]: 0 cigarettes per day
- Percentage Reduction [5, 15]: 100%
- Smoking during dose course (in words) ([5]; non-habit smoker 13a, chewing gum, 1000 mg/day, 2 days): Not able to finish cigarette
- effectiveness of systemic administration ([5]; tablet form, subjects 10 and 11, retention in the mouth not ruled out): partially effective
- Change in Smoking Pattern per cig. [5, 16]: Less than 3/4
- Cigarette Consumption per day at end [5, 16]: 17-18 cigarettes per day
- Percentage Reduction [5, 16]: 40-43%
- Change in Smoking Pattern per cig. [5, 17]: Reduced to 3-4 puffs
- Cigarette Consumption per day at end [5, 17]: 10-12 cigarettes per day
- Percentage Reduction [5, 17]: 70-75%
- convulsions produced by pentylenetetrazole or strychnine [6]: inhibited convulsions
- solubility in alcoholic solution ([7]; compared with water): somewhat more soluble
- solubility ([7]; one gram, water at 100° C., read-out: water to dissolve one gram completely (converted)): 167 mg/mL (≈ 1190 mM)
- absorption ([8]; after oral administration): rapidly absorbed
- excretion ([8]; after oral administration): rapidly excreted
- form of excretion ([8]; after oral administration): primarily as glucuronide and ethereal sulfate conjugates
- metabolism and excretion ([8]; in vivo): rapidly metabolized and excreted
- oxygen intake by rat brain cortex slices [9]: not affected
- threshold dose, chewing gum versus tablet ([10]; chewing gum over ten to fifteen minutes versus tablet): somewhat lower
- reaction to cigarettes ([10]; single dose greater than 300 mg): immediate overt negative reaction to cigarettes
- duration of substantially reduced level of smoking ([10]; single dose greater than 500 mg): a few hours to two days
- desire to smoke cigarettes ([10]; single dose greater than 500 mg, substantially all individuals): a definitive result of reduced desire to smoke cigarettes
- effect of dose greater than 1,200 mg ([10]; single dose greater than 1,200 mg): no addition advantage
- effect on smoking ([10]; single dose of less than 300 mg): no definitive effect
- effect of increasing dose ([10]; single dose up to about 1,200 mg): Increased effectiveness
- physiological symptoms of nicotine withdrawal ([10]; single dose, some subjects): For some subjects, physiological symptoms of nicotine withdrawal were noted

From US4276890A, “Tobacco smoking inhibitor” (priority 1979, dated 1981)
